Measured values: patent publication US20190380980A1, “A Method For Treating Peripheral Inflammatory Disease” (Dublin City University, priority 2015, published 2019)

Legend:
[1] = test system: Bone marrow derived dendritic cells (BMDCs); test: In vitro screening of oleamide and analogues: cytokine secretion by LPS-stimulated BMDCs; assay type: cell-based, Balb/c mice; conditions: for +LPS IL-12p40 / +LPS IL-12p70 / +LPS IL-23 / +LPS TNF-α: Table 3, BMDCs, 25 uM compound 1 hour prior to 100 ng/ml LPS, supernatants after 24 hours; for immunomodulatory effect: summary statement on the cytokine tables
Description: FIG. 2: In vitro results: Bone marrow dendritic cells (BMDCs) were cultured in vitro and plated at 1×10^6 cells per ml. The BMDCs were conditioned with 25 uM oleamide 1 hour prior to stimulation with 100 ng/ml LPS (E. coli serotype R515). After 24 hours, the supernatants were removed and analysed for cytokine levels of IL-12p40, IL-12p70, IL-23 and TNF-alpha using specific immunoassays. (n=9)
FIGS. 4(A) to 4(G): In vitro Results: Bone marrow dendritic cells (BMDCs) were cultured in vitro and plated at 1×10^6 cells/ml. The BMDCs were conditioned with oleamide or its family of analogues at a concentration of 25 uM 1 hour prior to stimulation with 100 ng/ml LPS (E. coli serotype R515). After 24 hours, the supernatants were removed and analysed for levels of IL-12p40, IL-12p70, IL-23 and TNF-alpha using specific immunoassays. (n=9)
FIG. 6: Bone marrow-derived dendritic cells (BMDCs) were cultured in vitro and plated at 1×10^6 cells/ml. The BMDCs were conditioned with analogues of oleamide (compounds 19.2, 20.1, 36.2, 37.1 or 39.1) at a concentration of 25 μM 1 hour prior to stimulation with 100 ng/ml LPS (E. coli serotype R515). After 24 hours, the supernatants were removed and analysed for levels of IL-12p40, IL-12p70, IL-23 and TNF-alpha using specific immunoassays. (n=9)
FIG. 7: Bone marrow-derived dendritic cells (BMDCs) were cultured in vitro and plated at 1×10^6 cells/ml. The BMDCs were conditioned with analogues of oleamide (compounds 18.2, 21.2, 22.2, 23.2, 33.1 or 34.1 in panel A and 35.1, 38.1, 50.2 in panel B) at a concentration of 25 μM 1 hour prior to stimulation with 100 ng/ml LPS (E. coli serotype R515). After 24 hours, the supernatants were removed and analysed for levels of IL-12p40, IL-12p70, IL-23 and TNF-alpha using specific immunoassays. (n=9)
The concentration of cytokines in cell supernatants was determined using ELISA Duoset kits from R&D Systems in accordance with the manufacturers' instructions. Briefly, 100 μl/well of capture antibody (diluted to the appropriate concentration in PBS) was added to an ELISA plate (Nunc) and incubated overnight at room temperature. Plates were then washed three times with Wash Buffer (PBS+0.05% Tween-20) and blocked by adding 300 μl of Blocking buffer (1% (w/v) BSA/PBS) for a minimum of 1 h at room temperature. The washing step was repeated and 100 μl of samples and standards (diluted to appropriate concentrations) were added per well, in triplicate. Plates were then incubated at 2-4° C. overnight. The next day, plates were washed again and 100 μl of the biotinylated detection antibody was added to each well and incubated for 2 hours at room temperature. 100 μl of Streptavidin-horseradish-peroxidase (R&D Systems) was then added to each well, following another wash step. Plates were incubated for 20 min at room temperature. After the last washing step, 100 μl of tetramethylbenzidine (BD Biosciences) was added to each well and plates were left in the dark for 20 minutes or until a blue colour developed. Colour development was stopped by adding 50 μl of 1M sulphuric acid (Sigma-Aldrich) to the wells. The optical density was determined at 450 nm, using a VersaMax™ microplate reader (Molecular Devices). For each set of samples, a standard curve was generated and the values of unknown samples were calculated from the standard curve.
Bone marrow derived dendritic cells (BMDCs) were cultured as follows:
(Day 1) Bone marrow cells were harvested from the femur and tibia of Balb/c female mice by flushing the bone with RPMI 1640 complete media [supplemented with 10% foetal calf serum and 2% Penicilin-Steptomycin (Life Technologies, Ireland)] using a 27 gauge needle attached to a 10 ml syringe. The bone marrow cells were collected into a 50-ml Falcon tube and centrifuged at 1200 RPM for 5 minutes. […]

[2] = test system: BV2 murine microglial cells; conditions: lipopolysaccharide-stimulated neuronal microglia; cited from earlier work

## CCCCCCCC/C=C\CCCCCCCC(=O)NCc1ccccc1 [Compound 18-2, N-benzyloleamide]
[1]
  +LPS IL-12p40: ↑
  +LPS IL-12p70: ↑
  +LPS IL-23: →
  +LPS TNF-α: →

## CCCCCCCC/C=C\CCCCCCCC(=O)Nc1ccc(N(C)C)cc1 [Compound 19-2, N-(4-(dimethylamino)phenyl)oleamide]
[1]
  +LPS IL-12p40: →
  +LPS IL-12p70: →
  +LPS IL-23: →
  +LPS TNF-α: →

## CCCCCCCC/C=C\CCCCCCCC(=O)Nc1ccc(N(CC)CC)cc1 [Compound 20-1, N-(4-(diethylamino)phenyl)oleamide]
[1]
  +LPS IL-12p40: →
  +LPS IL-12p70: ↓
  +LPS IL-23: →
  +LPS TNF-α: →

## CCCCCCCC/C=C\CCCCCCCC(=O)NCc1ccc(OC)cc1 [Compound 21-2, N-(4-methoxybenzyl) oleamide]
[1]
  +LPS IL-12p40: ↑
  +LPS IL-12p70: ↑
  +LPS IL-23: ↓
  +LPS TNF-α: →

## CCCCCCCC/C=C\CCCCCCCC(=O)NCc1cccc(OC)c1 [Compound 22-2, N-(3-methoxybenzyl) oleamide]
[1]
  +LPS IL-12p40: ↑
  +LPS IL-12p70: ↑
  +LPS IL-23: ↓
  +LPS TNF-α: →

## CCCCCCCC/C=C\CCCCCCCC(=O)NCc1ccccc1OC [Compound 23-2, N-(2-methoxybenzyl) oleamide]
[1]
  +LPS IL-12p40: ↑
  +LPS IL-12p70: →
  +LPS IL-23: ↓
  +LPS TNF-α: →

## CCCCCCCC/C=C\CCCCCCCC(=O)NCc1ccc(C(F)(F)F)cc1 [Compound 33-1, N-(4-(trifluoromethyl)benzyl)oleamide]
[1]
  +LPS IL-12p40: ↑
  +LPS IL-12p70: ↑
  +LPS IL-23: →
  +LPS TNF-α: →

## CCCCCCCC/C=C\CCCCCCCC(=O)NCc1cccc(C(F)(F)F)c1 [Compound 34-1, N-(3-(trifluoromethyl)benzyl)oleamide]
[1]
  +LPS IL-12p40: ↑
  +LPS IL-12p70: →
  +LPS IL-23: ↓
  +LPS TNF-α: →

## CCCCCCCC/C=C\CCCCCCCC(=O)NCc1ccccc1C(F)(F)F [Compound 35-1, N-(2-(trifluoromethyl)benzyl)oleamide]
[1]
  +LPS IL-12p40: →
  +LPS IL-12p70: →
  +LPS IL-23: ↓
  +LPS TNF-α: →

## CCCCCCCC/C=C\CCCCCCCC(=O)Nc1ccc2ccccc2n1 [Compound 36-2, N-(quinolin-2-yl) oleamide]
[1]
  +LPS IL-12p40: ↓
  +LPS IL-12p70: ↓
  +LPS IL-23: ↓
  +LPS TNF-α: ↓

## CCCCCCCC/C=C\CCCCCCCC(=O)Nc1ccccn1 [Compound 37-1, N-(pyridin-2-yl) oleamide]
[1]
  +LPS IL-12p40: →
  +LPS IL-12p70: →
  +LPS IL-23: ↓
  +LPS TNF-α: ↓

## CCCCCCCC/C=C\CCCCCCCC(=O)Nc1cccnc1 [Compound 38-1, N-(pyridin-3-yl) oleamide]
[1]
  +LPS IL-12p40: ↓
  +LPS IL-12p70: →
  +LPS IL-23: ↓
  +LPS TNF-α: →

## CCCCCCCC/C=C\CCCCCCCC(=O)Nc1ccncc1 [Compound 39-1, N-(pyridin-4-yl) oleamide]
[1]
  +LPS IL-12p40: ↓
  +LPS IL-12p70: ↓
  +LPS IL-23: →
  +LPS TNF-α: →

## NC(=O)COCCCCOc1ccccc1 [Compound 50-2, 2-(4-phenoxybutoxy) acetamide]
[1]
  +LPS IL-12p40: →
  +LPS IL-12p70: →
  +LPS IL-23: ↓
  +LPS TNF-α: →

## NC(=O)COCCCOCc1ccccc1 [Compound 51-2, 2-(3-(benzyloxy)propoxy) acetamide]
[1]
  +LPS IL-12p40: ↓
  +LPS IL-12p70: ↓
  +LPS IL-23: ↓
  +LPS TNF-α: →

## CCCCCCCC/C=C\CCCCCCCC(N)=O [Ole, 9(Z)-Octadecenamide]
[1]
  +LPS IL-12p40: ↓
  +LPS IL-12p70: ↓
  +LPS IL-23: ↓
  +LPS TNF-α: →
  immunomodulatory effect: immunomodulatory effect
[2]
  activation of p38, ERK, PI3-kinase/Akt, ROS accumulation and NF-κB activation: blocks activation
  pro-inflammatory mediators: suppressor of pro-inflammatory mediators

## CCCCC/C=C\C/C=C\C/C=C\C/C=C\CCCC(N)=O [arachidonamide]
[1]
  immunomodulatory effect: immunomodulatory effect

## CCCCC/C=C\C/C=C\CCCCCCCC(N)=O [linoleamide]
[1]
  immunomodulatory effect: immunomodulatory effect

## CC/C=C\C/C=C\C/C=C\CCCCCCCC(N)=O [linolenamide]
[1]
  immunomodulatory effect: immunomodulatory effect

## CCCCCCCCCCCCCCCC(N)=O [palmitamide]
[1]
  immunomodulatory effect: immunomodulatory effect

## CCCCCC/C=C\CCCCCCCC(N)=O [palmitoleamide]
[1]
  immunomodulatory effect: immunomodulatory effect

## CCCCCCCCCCCCCCCCCC(N)=O [stearamide]
[1]
  immunomodulatory effect: immunomodulatory effect
